The test system of the test is anti-nicotine IgG. Kind of test: Anti-nicotine IgG titers in immunized mice (ELISA). It counts as in vivo, C57BL6 mice. To be noted: immunized day 0, boosted after 2, 4 and 8 weeks. For orientation: An ELISA detects its analyte on a solid surface through an enzyme-linked reagent.

With `CN1CCCC1c1cccnc1` (stereo not shown) [free nicotine, nicotine], the “production of nicotine antibodies” value is on record as “does not elicit the production of nicotine antibodies”.
